In patent US20230321261A1, “AXL-SPECIFIC ANTIBODY-DRUG CONJUGATES FOR CANCER TREATMENT” (GENMAB A/S, priority 2016, published 2023):
“And” between values parts separate entries of the source, which are not always exact repeats. Equal values may be shown once.

Legend:
MAP4K5 (KHS1) = MAP4K5 (KHS1) (Homo sapiens, UniProt Q9Y4K4); details: Bollag et al., 2010; read-out: Primary Target(s) (IC50): MAP4K5 (KHS1); cited from earlier work
COLO679 = experiment: Melanoma cell viability (CellTiter-Glo); type: cell-based, human; details: 0.0001 to 10 µg/mL, 5 days
M016 = experiment: Patient-derived melanoma culture viability (CellTiter-Glo); type: cell-based, human; details: for HuMax-AXL-ADC sensitivity: 8 days
A431 tumors = experiment: A431 xenograft model (high Gas6); type: in vivo, SCID mice; details: 3 mg/kg
Description: (§1) Tumor induction was performed by subcutaneous injection of 5 × 10^6 A431 or LCLC-103H tumor cells (both obtained from Leibniz-Institut - Deutsche Sammlung von Mikroorganismen und Zellkulturen GmbH (DSMZ)) in 200 µL PBS in the right flank of female SCID mice. Treatment was started 14-21 days after tumor cell inoculation, when the average tumor size was >100-200 mm^3 and distinct tumor growth was observed. Mice received a single injection or a total of 4 biweekly intraperitoneal injections with IgG1-AXL-vcMMAE ADCs or control antibody (unconjugated IgG1-b12), as indicated. Tumor volume was determined at least two times per week. Tumor volumes (mm^3) were calculated from caliper (PLEXX) measurements as: 0.52 × (length) × (width)^2.

SKMEL147 tumors = experiment: SKMEL147 melanoma xenograft model; type: in vivo, NMRI nude mice
[1] = test system: LCLC-103H xenograft tumors; experiment: LCLC-103H xenograft model; type: in vivo, SCID mice
Description: 5 × 10^6 LCLC-103H (large cell lung carcinoma) tumor cells (obtained from Leibniz-Institut DSMZ-Deutsche Sammlung von Mikroorganismen und Zellkulturen GmbH (DSMZ)) in 200 µL PBS were injected subcutaneously in the right flank of female SCID mice. Starting 14-21 days after tumor cell inoculation, when the average tumor size was >100-200 mm^3 and distinct tumor growth was observed, a single injection with 1 mg/kg (20 µg/mouse) IgG1-AXL-vcMMAE antibodies (as described in Supplementary Example 1) or control (unconjugated IgG1-b12) was given intraperitoneally (100 µL/mouse). Tumor volume was determined at least two times per week. Tumor volumes (mm^3) were calculated from caliper (PLEXX) measurements as: 0.52 × (length) × (width)^2.
as §1, with “Mice received a single injection or a total of 4 biweekly intraperitoneal injections with IgG1-AXL-vcMMAE ADCs or control antibody (unconjugated IgG1-b12), as indicated.” left out

SKMEL28R = experiment: Melanoma cell viability (CellTiter-Glo); type: cell-based, human; details: for HuMax-AXL-ADC sensitivity: 0.0001 to 10 µg/mL, 5 days
SKMEL28 = experiment: Melanoma cell viability (CellTiter-Glo); type: cell-based, human; details: for HuMax-AXL-ADC sensitivity: 0.0001 to 10 µg/mL, 5 days
SKMEL147 = experiment: Melanoma cell viability (CellTiter-Glo); type: cell-based, human; details: for HuMax-AXL-ADC sensitivity: 0.0001 to 10 µg/mL, 5 days
PAXF1657 tumors = experiment: PAXF1657 pancreas cancer PDX model; type: in vivo, NMRI nu/nu mice; details: day 0
A875 = experiment: Melanoma cell viability (CellTiter-Glo); type: cell-based, human; details: for HuMax-AXL-ADC sensitivity: 0.0001 to 10 µg/mL, 5 days
M082 = experiment: Patient-derived melanoma culture viability (CellTiter-Glo); type: cell-based, human; details: for HuMax-AXL-ADC sensitivity: 8 days
FM6 = experiment: NRAS mutant melanoma cell viability (CellTiter-Glo); type: cell-based, human
SKMEL2 = experiment: as above; type: cell-based, human
M019R = experiment: Patient-derived melanoma culture viability (CellTiter-Glo); type: cell-based, human
BLM = experiment: NRAS mutant melanoma cell viability (CellTiter-Glo); type: cell-based, human
A375R = experiment: Melanoma cell viability (CellTiter-Glo); type: cell-based, human
SKMEL2R = experiment: NRAS mutant melanoma cell viability (CellTiter-Glo); type: cell-based, human
MEK1 = MEK1 (Homo sapiens, UniProt Q02750); details: read-out: Primary Target(s) (IC50): MEK1; cited from earlier work
C-Raf = C-Raf (Homo sapiens, UniProt P04049); details: literature reference per drug in Table 1; read-out: Primary Target(s) (IC50): C-Raf (also printed Raf-1, C-Raf-1, C-RAF); cited from earlier work
MEK½ = test system: T1, MEK½; details: Pheneger et al., 2006; read-out: Primary Target(s) (IC50): MEK½; cited from earlier work
T1 construct: other: Pheneger et al., 2006

C-Raf/BRAF/BRAF V600E = details: read-out: Primary Target(s) (IC50): C-Raf/BRAF/BRAF V600E; Mordant et al., 2010; cited from earlier work
A431 cells = experiment: Antibody-dependent cell-mediated cytotoxicity (51Cr release); type: cell-based, human; details: concentrations up to 10 µg/mL; PBMC effector to target ratio 100:1
Description: The ability of anti-AXL antibodies to induce ADCC of A431 epidermoid carcinoma cells was determined as explained below. As effector cells, peripheral blood mononuclear cells from healthy volunteers (UMC Utrecht, The Netherlands) were used.
A431 cells were collected (5×10^6 cells) in culture medium (RPMI 1640 culture medium supplemented with 10% fetal calf serum (FSC)), to which 100 µCi ^51Cr (Chromium-51; Amersham Biosciences Europe GmbH, Roosendaal, The Netherlands) had been added, and the mixture was incubated in a 37° C. water bath for 1 hour (hr) while shaking. After washing of the cells (twice in PBS, 1200 rpm, 5 min), the cells were resuspended in RPMI1640/10% FSC and counted by trypan blue exclusion. […]
Peripheral blood mononuclear cells (healthy volunteers, UMC Utrecht, Utrecht, The Netherlands) were isolated from 45 mL of freshly drawn heparin blood by Ficoll (Bio Whittaker; lymphocyte separation medium, cat 17-829E) according to the manufacturer’s instructions. After resuspension of cells in RPMI1640/10% FSC, cells were counted by trypan blue exclusion and diluted to a density of 1×10^7 cells/mL.
50 µl of ^51Cr-labeled targets cells were pipetted into 96-well plates, and 50 µl of antibody were added, diluted in RPMI1640/10% FSC (3-fold dilutions at final concentrations range 0.01-10 µg/mL). […] The percentage specific lysis was calculated as follows: […]

[2] = 4 mg/kg i.v. on day 12 and day 19 after tumor cell injection

Sequence of MAP4K5 (KHS1) (Q9Y4K4 whole entry, species assumed): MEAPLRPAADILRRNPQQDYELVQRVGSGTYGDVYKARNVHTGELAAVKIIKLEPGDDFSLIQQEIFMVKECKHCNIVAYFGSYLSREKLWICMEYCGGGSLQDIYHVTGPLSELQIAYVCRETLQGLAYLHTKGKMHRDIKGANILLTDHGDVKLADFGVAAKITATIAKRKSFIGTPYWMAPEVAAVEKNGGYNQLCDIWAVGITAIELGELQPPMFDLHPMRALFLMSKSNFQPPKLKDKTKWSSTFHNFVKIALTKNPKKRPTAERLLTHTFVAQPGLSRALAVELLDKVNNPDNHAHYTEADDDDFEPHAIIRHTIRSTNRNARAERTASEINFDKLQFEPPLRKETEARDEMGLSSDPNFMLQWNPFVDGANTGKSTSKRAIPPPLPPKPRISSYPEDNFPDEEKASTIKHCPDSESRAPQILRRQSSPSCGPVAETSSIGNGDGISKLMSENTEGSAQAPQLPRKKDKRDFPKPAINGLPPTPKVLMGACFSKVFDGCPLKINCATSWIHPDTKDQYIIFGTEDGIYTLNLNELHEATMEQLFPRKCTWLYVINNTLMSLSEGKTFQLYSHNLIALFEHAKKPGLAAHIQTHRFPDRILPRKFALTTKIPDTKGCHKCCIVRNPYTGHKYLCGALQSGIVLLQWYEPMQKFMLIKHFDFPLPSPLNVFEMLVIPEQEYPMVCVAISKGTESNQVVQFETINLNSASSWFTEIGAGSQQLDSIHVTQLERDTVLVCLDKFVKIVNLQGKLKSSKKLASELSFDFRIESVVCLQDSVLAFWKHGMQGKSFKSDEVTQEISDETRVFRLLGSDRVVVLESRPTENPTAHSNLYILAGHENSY
Sequence of MEK1 (Q02750 whole entry): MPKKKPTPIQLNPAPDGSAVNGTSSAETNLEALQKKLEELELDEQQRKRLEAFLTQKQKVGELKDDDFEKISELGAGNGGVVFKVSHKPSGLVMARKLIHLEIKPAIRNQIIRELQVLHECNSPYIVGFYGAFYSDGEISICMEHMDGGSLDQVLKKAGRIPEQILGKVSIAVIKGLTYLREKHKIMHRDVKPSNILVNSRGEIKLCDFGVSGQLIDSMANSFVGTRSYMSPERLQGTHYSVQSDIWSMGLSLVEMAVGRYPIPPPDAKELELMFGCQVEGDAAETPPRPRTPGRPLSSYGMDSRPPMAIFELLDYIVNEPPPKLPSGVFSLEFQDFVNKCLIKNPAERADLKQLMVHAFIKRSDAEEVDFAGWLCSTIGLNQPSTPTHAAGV
Sequence of C-Raf (P04049 whole entry): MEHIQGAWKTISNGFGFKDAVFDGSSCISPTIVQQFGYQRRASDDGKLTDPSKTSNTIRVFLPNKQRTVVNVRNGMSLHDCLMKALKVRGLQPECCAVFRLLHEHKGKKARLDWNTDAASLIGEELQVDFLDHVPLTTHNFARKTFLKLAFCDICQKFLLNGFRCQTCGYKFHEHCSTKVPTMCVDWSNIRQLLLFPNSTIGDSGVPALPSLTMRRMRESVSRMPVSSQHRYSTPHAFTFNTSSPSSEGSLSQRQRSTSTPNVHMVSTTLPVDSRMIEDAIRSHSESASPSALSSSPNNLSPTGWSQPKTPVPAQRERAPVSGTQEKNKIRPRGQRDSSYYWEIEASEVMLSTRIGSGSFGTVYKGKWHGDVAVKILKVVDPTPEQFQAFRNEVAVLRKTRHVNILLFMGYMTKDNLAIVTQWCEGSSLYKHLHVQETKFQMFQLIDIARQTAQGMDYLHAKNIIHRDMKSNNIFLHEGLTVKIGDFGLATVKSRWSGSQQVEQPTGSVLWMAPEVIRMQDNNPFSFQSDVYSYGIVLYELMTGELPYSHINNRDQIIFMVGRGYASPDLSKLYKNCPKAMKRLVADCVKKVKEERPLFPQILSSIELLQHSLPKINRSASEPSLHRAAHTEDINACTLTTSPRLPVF

Molecule: CCCS(=O)(=O)Nc1ccc(F)c(C(=O)c2c[nH]c3ncc(-c4ccc(Cl)cc4)cc23)c1F [Vemurafenib, N-[3-[[5-(4-chlorophenyl)-1H-pyrrolo[2,3-b]pyridin-3-yl]carbonyl]-2,4-difluorophenyl]-1-propanesulfonamide]
- IC50 (MAP4K5 (KHS1)): 51 nM

Molecule: IgG1-AXL-107-vcMMAE
- HuMax-AXL-ADC sensitivity (COLO679): did not show changes in viability
- HuMax-AXL-ADC sensitivity (COLO679; listed as HuMax-AXL-ADC): Resistant
- HuMax-AXL-ADC sensitivity (M016): sensitive
- HuMax-AXL-ADC sensitivity (M016; listed as HuMax-AXL-ADC): Sensitive
- anti-tumor activity in the A431 xenograft model (A431 tumors): growth inhibition
- anti-tumor activity in the SKMEL147 melanoma xenograft model (SKMEL147 tumors; 2 mg/kg i.v. on day 12 and day 19 after tumor cell injection): tumor growth inhibition
- day until which tumor regression lasted (SKMEL147 tumors; 4 mg/kg): ~50 days
- anti-tumor activity in the SKMEL147 melanoma xenograft model (SKMEL147 tumors; [2]): strong tumor regression
- anti-tumor activity in the SKMEL147 melanoma xenograft model (SKMEL147 tumors; 4 mg/kg i.v. on day 12 and day 19 after tumor cell injection, listed as HuMax-AXL-ADC): profound anti-tumor effect
- effect of retreatment after tumor regrowth (SKMEL147 tumors; single dose of 4 mg/kg on day 55, n=4): tumor regression in all four mice
- anti-tumor activity in the LCLC-103H xenograft model ([1]; 1 mg/kg (Example 13, FIG. 14B)): regression
- anti-tumor activity in established SC LCLC-103H tumors ([1]; single injection 1 mg/kg intraperitoneally (Example 9)): tumor regression
- HuMax-AXL-ADC sensitivity (SKMEL28R): sensitive
- HuMax-AXL-ADC sensitivity (SKMEL28R; listed as HuMax-AXL-ADC): Sensitive
- HuMax-AXL-ADC sensitivity (SKMEL28): did not show changes in viability
- HuMax-AXL-ADC sensitivity (SKMEL28; listed as HuMax-AXL-ADC): Resistant
- HuMax-AXL-ADC sensitivity (SKMEL147): sensitive
- HuMax-AXL-ADC sensitivity (SKMEL147; listed as HuMax-AXL-ADC): Sensitive
- growth of PAXF1657 tumors compared to the control group (PAXF1657 tumors; 2 mg/kg i.v.): significantly reduced the growth
- growth of PAXF1657 tumors (PAXF1657 tumors; 4 mg/kg i.v.): induced tumor regression
- HuMax-AXL-ADC sensitivity (A875): sensitive
- HuMax-AXL-ADC sensitivity (A875; listed as HuMax-AXL-ADC): Sensitive
- HuMax-AXL-ADC sensitivity (M082): did not show a different response
- HuMax-AXL-ADC sensitivity (M082; listed as HuMax-AXL-ADC): Insensitive

Molecule: CCCS(=O)(=O)Nc1ccc(F)c(C(=O)c2c[nH]c3ncc(Cl)cc23)c1F [PLX4720, N-(3-(5-chloro-1H-pyrrolo[2,3-b]pyridine-3-carbonyl)-2,4-difluorophenyl)propane-1-sulfonamide]
- PLX4720 sensitivity (FM6): insensitive
- PLX4720 sensitivity (M016): resistant
- PLX4720 sensitivity (SKMEL2): insensitive
- PLX4720 sensitivity (M019R; M019R (Table 16)): resistant
- drug sensitivity in vitro: PLX4720 sensitivity (M019R; M019R, 8 days): insensitive
- PLX4720 sensitivity (SKMEL28R): resistant
- PLX4720 sensitivity (SKMEL28): sensitive
- PLX4720 sensitivity (SKMEL147): resistant
- PLX4720 sensitivity (BLM): insensitive
- PLX4720 sensitivity (A875): sensitive
- PLX4720 sensitivity (A375R): resistant
- PLX4720 sensitivity (SKMEL2R): insensitive
- PLX4720 sensitivity (M082): resistant

Molecule: O=C(c1ccc(F)c(F)c1Nc1ccc(I)cc1F)N1CC(O)([C@@H]2CCCCN2)C1 [Cobimetinib, [3,4-difluoro-2-[(2-fluoro-4-iodophenyl)amino]phenyl][3-hydroxy-3-(2S)-2-piperidinyl-1-azetidinyl]-methanone]
- IC50 (MEK1): ~4.2 nM

Molecule: CC(=O)Nc1cccc(-n2c(=O)n(C3CC3)c(=O)c3c(Nc4ccc(I)cc4F)n(C)c(=O)c(C)c32)c1 [Trametinib, N-(3-(3-cyclopropyl-5-(2-fluoro-4-iodophenylamino)-6,8-dimethyl-2,4,7-trioxo-3,4,6,7-tetrahydropyrido[4,3-d]pyrimidin-1(2H)-yl)phenyl)acetamide]
- trametinib sensitivity (SKMEL2): sensitive
- drug sensitivity in vitro: trametinib sensitivity (M019R; M019R, 8 days): insensitive
- trametinib sensitivity (SKMEL2R): insensitive

Molecule: CN(C)CCOc1ccc(-c2nc(-c3ccncc3)c(-c3ccc4c(c3)CC/C4=N\O)[nH]2)cc1 [SB590885, (E)-5-(2-(4-(2-(dimethylamino)ethoxy)phenyl)-4-(pyridin-4-yl)-1H-imidazol-5-yl)-2,3-dihydroinden-1-one oxime]
- IC50 (C-Raf): 1.72 nM

Molecule: Cn1cnc2c(F)c(Nc3ccc(Br)cc3F)c(C(=O)NOCCO)cc21 [Binimetinib, 1H-Benzimidazole-6-carboxamide, 5-[(4-bromo-2-fluorophenyl)amino]-4-fluoro-N-(2-hydroxyethoxy)-1-methyl-]
- IC50 (MEK½): ~12 nM and 12 nM

Molecule: Cn1c(Nc2ccc(C(F)(F)F)cc2)nc2cc(Oc3ccnc(-c4ncc(C(F)(F)F)[nH]4)c3)ccc21 [RAF265, 1-methyl-5-[2-[5-(trifluoromethyl)-1H-imidazol-2-yl]pyridin-4-yl]oxy-N-[4-(trifluoromethyl)phenyl]benzimidazol-2-amine]
- IC50 (C-Raf/BRAF/BRAF V600E): 3 to 60 nM

Molecule: IgG1-AXL-107: AXL-specific human IgG1,κ antibody, VH SEQ ID NO:1, VL SEQ ID NO:2, Ig1 domain binding
- anti-tumor activity in the SKMEL147 melanoma xenograft model (SKMEL147 tumors; [2]): did not show tumor growth inhibition
- ADCC in A431 cells (percentage specific lysis) (A431 cells): did not induce significant ADCC
